Five compounds from US20230407243A1, “GENETIC PLATFORM TO INVESTIGATE THE FUNCTIONS OF BACTERIAL DRUG EFFLUX PUMPS” (priority 2022, published 2023) can be followed below.

What all share (type): cell-based, Escherichia coli
The test system of assay [1] is EKO-35-Pore strains with integrated AcrB, AcrEF, AcrD, MdtEF with pGDP2:emrE or empty pGDP-2. Description: Efflux pump interplay MIC profiling (pGDP2:emrE), porinated. The conditions noted are these: for Interplay effect / MIC / Fold Change from EKO-35: Pore +. The text has this: This plasmid enables single-copy genomic integration of a selected gene through integration into the nonessential araC gene within the arabinose operon (Cox, G. et al., 2022). All E. coli genes were amplified from E. coli BW25113 genomic DNA, and mexCD was amplified from P. aeruginosa PAO1, using a high-fidelity polymerase, followed by ligation into pINT2. Successful clones were verified using PCR (Primers: pLac-Fwd/pINT-Rev, Table 4) and confirmed via Sanger sequencing at The Centre for Applied Genomics (TCAG) (The Hospital for Sick Children) and the AAC (University of Guelph). For the interplay studies, this process was repeated using the pGDP2 plasmid (Cox, G. et al., 2022).
To enable comparison between efflux production in different genetic backgrounds, each efflux pump-encoding gene was also integrated into the genome of the wild-type BW25113 strain, the single gene deletion mutant from the Keio Collection, and EKO-35. Strains of interest were propagated on LB agar at 37° C. Cell inoculum was prepared using the colony resuspension method and applied to a 96-well well plate (VWR) in technical duplicate, and the minimum inhibitory concentrations were determined according to Clinical & Laboratory Standards Institute (CLSI) protocols in MHB II (Patel J. B. et al, 2015). The plates were incubated for 18 h (Multitron Shaker, Infors HT) at 37° C. with aeration at 900 rpm. The plates were equilibrated to room temperature before the OD600 nm was measured using a BioTek Synergy H1 microplate reader. For interplay profiling, blank subtracted OD600 nm values >0.1 were considered to represent growth.
To investigate, the EKO-35-Pore strains were profiled using the same approach.

The test system of assay [2] is EKO-35 porinated strain expressing acrD. As to the kind of experiment: Checkerboard synergy (FICI), porinated strain. The method in brief:
(§1)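 Read-out was OD600, the MIC being the lowest concentration without growth in a CLSI checkerboard run in MHB II. Each drug's MIC in combination was divided by its MIC alone and the two ratios summed as FICI. Cut-offs: <0.5 synergy, >0.5–1.0 additive, >1.0–2.0 indifferent, >2.0 antagonism.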

The subject of assay [3] is EKO-35 porinated strain expressing acrF (AcrEF). As to the kind of experiment: Checkerboard synergy (FICI), porinated strain. In a few lines:
as §1

Assay [4] relates to EKO-35-Pore strains producing other efflux pumps. Description: Checkerboard synergy (FICI), porinated strain. The method in brief: as §1
Where [5] appears, read: EKO-35 acrD Pore, NMP + antibiotic.
Setting [6] is: EKO-35 acrD Pore, PAβN + antibiotic.
Setting [7] is: EKO-35 acrD Pore, antibiotic alone (PAβN checkerboard).
Setting [8] is: EKO-35 acrD Pore, antibiotic in combination with PAβN.
The mark [9] stands for this setting: strain EKO-35 acrD Pore, NMP + antibiotic.
The mark [10] stands for this setting: strain EKO-35 acrD Pore, antibiotic alone.
[11] abbreviates: strain EKO-35 acrD Pore, antibiotic in combination with NMP.
[12] abbreviates: EKO-35 acrEF Pore, NMP + antibiotic.
Where [13] appears, read: EKO-35 acrEF Pore, PAβN + antibiotic.
Where [14] appears, read: EKO-35 acrEF Pore, antibiotic alone (PAβN checkerboard).
The mark [15] stands for this setting: EKO-35 acrEF Pore, antibiotic in combination with PAβN.
Where [16] appears, read: strain EKO-35 acrEF Pore, NMP + antibiotic.
Where [17] appears, read: strain EKO-35 acrEF Pore, antibiotic alone.
The mark [18] stands for this setting: strain EKO-35 acrEF Pore, antibiotic in combination with NMP.
Where [19] appears, read: EKO-35 mdtEF Pore, NMP + antibiotic.
Where [20] appears, read: EKO-35 mdtEF Pore, PAβN + antibiotic.
The mark [21] stands for this setting: strain EKO-35 mdtEF Pore, NMP + antibiotic.

As to `C[n+]1c2cc(N)ccc2cc2ccc(N)cc21.[Cl-]` [acriflavine], the “resistance conferred by AcrD alone or in combination with EmrE” value in assay [1] (EKO-35-Pore) is reported as “did not increase resistance”. In addition, the “interplay of EmrE with tripartite efflux pumps on resistance” value in assay [1] (EKO-35-Pore, AcrB, AcrEF, AcrD, MdtEF combined with pEmrE) was “Interplay was maintained”. In addition, the “interplay of EmrE with AcrD on resistance” value in assay [1] (EKO-35-Pore, AcrD with EmrE) is “multiplicative effect was lost”. Also, the Interplay effect entry in assay [1] (acrB with pEmrE), in assay [1] (acrEF with pEmrE) and in assay [1] (mdtEF with pEmrE) was “Multiplicative” each time. Besides, the MIC in assay [1] (strain EKO-35) was determined as 0.049 µg/mL; in assay [1] (strain EKO-35 pEmrE) it was 0.781 µg/mL; in assay [1] (strain acrB pEmrE), 12.5 µg/mL; in assay [1] (strain acrB), 0.781 µg/mL; in assay [1] (strain acrD pEmrE), 0.781 µg/mL; in assay [1] (strain acrD), 0.098 µg/mL. In addition, the MIC was found to be 6.25 µg/mL in assay [1] (strain acrEF pEmrE), 0.781 µg/mL in assay [1] (strain acrEF), 1.56 µg/mL in assay [1] (strain mdtEF pEmrE) and 0.195 µg/mL in assay [1] (strain mdtEF). Moreover, the “Fold Change from EKO-35” value turned out to be 16 in assay [1] (strain EKO-35 pEmrE); 256 in assay [1] (strain acrB pEmrE); 16 in assay [1] (strain acrB); 16 in assay [1] (strain acrD pEmrE); 2 in assay [1] (strain acrD); 128 in assay [1] (strain acrEF pEmrE). The results for the “Fold Change from EKO-35” value in assay [1] (strain acrEF), in assay [1] (strain mdtEF pEmrE) and in assay [1] (strain mdtEF) were 16, 32 and 4, respectively.

With `Cc1onc(-c2ccccc2)c1C(=O)N[C@@H]1C(=O)N2[C@@H]1SC(C)(C)[C@@H]2C(=O)O` [oxacillin], the Effect entry is given as “Additive” in assay [2] (setting [5]); “Synergistic” in assay [2] (setting [6]); “Additive (additive (FICI >0.5-1.0))” in assay [2] (setting [9]); “Synergistic” in assay [3] (setting [13]); “— (indifferent (FICI >1.0))” in assay [3] (setting [16]). The FICI in assay [2] (setting [5]) amounted to 0.750; in assay [2] (setting [6]) it was 0.500; in assay [2] (setting [9]), 0.750; in assay [3] (setting [12]), 1.000; in assay [3] (setting [13]) it was 0.500; in assay [3] (setting [16]) it was 1.000. The “MICb Alone” value stood at 4 µg/mL in assay [2] (setting [7]), 2 µg/mL in assay [2] (setting [10]), 4 µg/mL in assay [3] (setting [14]) and 2 µg/mL in assay [3] (setting [17]). For the same compound, the “MICb Combined” value in assay [2] (setting [8]) came out at 1 µg/mL; in assay [2] (setting [11]) it was 0.5 µg/mL; in assay [3] (setting [15]) it was 1 µg/mL; in assay [3] (setting [18]), 1 µg/mL. Moreover, the “interaction of PAβN in combination with the labelled antibiotic (FICI)” value in assay [2] (acrD expressed in the porinated strain) is given as “still observed”.

Regarding `CC(=O)O[C@H]1C[C@@]2(C)[C@@H](C[C@@H](O)[C@H]3[C@@]4(C)CC[C@@H](O)[C@@H](C)[C@@H]4CC[C@@]32C)/C1=C(\CCC=C(C)C)C(=O)O` [fusidic acid], the FICI in assay [2] (setting [5]) is recorded as 1.000; in assay [2] (setting [6]), 0.250; in assay [2] (setting [9]) it was 1.000; in assay [3] (setting [13]) it was 0.313; in assay [4] (setting [19]), 0.750; in assay [4] (setting [20]), 0.250. For the same compound, the FICI in assay [4] (setting [21]) came to 0.750. The Effect result in assay [2] (setting [6]) is on record as “Synergistic”; in assay [2] (setting [9]), “— (indifferent (FICI >1.0))”; in assay [3] (setting [12]) it was “Additive”; in assay [3] (setting [13]), “Synergistic”; in assay [3] (setting [16]), “Additive (additive (FICI >0.5-1.0))”; in assay [4] (setting [19]), “Additive”. The Effect result in assay [4] (setting [20]) is on record as “Synergistic”; in assay [4] (setting [21]) it was “Additive (additive (FICI >0.5-1.0))”. The “MICb Alone” value was 64 µg/mL in assay [2] (setting [7]); 64 µg/mL in assay [2] (setting [10]); 4 µg/mL in assay [3] (setting [14]); 2 µg/mL in assay [3] (setting [17]); 16 µg/mL in assay [4] (EKO-35 mdtEF Pore, antibiotic alone (PAβN checkerboard)); 8 µg/mL in assay [4] (strain EKO-35 mdtEF Pore, antibiotic alone). Besides, the “MICb Combined” value in assay [2] (setting [8]) was determined as 8 µg/mL; in assay [2] (setting [11]), 32 µg/mL; in assay [3] (setting [15]) it was 1 µg/mL; in assay [3] (setting [18]), 1 µg/mL; in assay [4] (EKO-35 mdtEF Pore, antibiotic in combination with PAβN), 2 µg/mL; in assay [4] (strain EKO-35 mdtEF Pore, antibiotic in combination with NMP) it was 2 µg/mL.

With `CC[n+]1c(-c2ccccc2)c2cc(N)ccc2c2ccc(N)cc21` [ethidium bromide], the FICI in assay [3] (setting [12]) and in assay [3] (setting [16]) was 0.500 throughout. In addition, in assay [3] (setting [16]), the Effect entry is “Synergistic (Synergy (FICI ≤0.5))”. Further, the “MICb Alone” value in assay [3] (setting [17]) is 2 µg/mL. Besides, the “MICb Combined” value in assay [3] (setting [18]) turned out to be 0.5 µg/mL. Also, the MIC was determined as 0.061 µg/mL in assay [1] (strain EKO-35); 15.6 µg/mL in assay [1] (strain acrB pEmrE); 3.91 µg/mL in assay [1] (strain acrB); 0.061 µg/mL in assay [1] (strain acrD); 3.91 µg/mL in assay [1] (strain acrEF pEmrE); 1.95 µg/mL in assay [1] (strain mdtEF pEmrE). The “Fold Change from EKO-35” value was 4 in assay [1] (strain EKO-35 pEmrE); 256 in assay [1] (strain acrB pEmrE); 64 in assay [1] (strain acrB); 8 in assay [1] (strain acrD pEmrE); 1 in assay [1] (strain acrD); 64 in assay [1] (strain acrEF pEmrE). The “Fold Change from EKO-35” value was found to be 16 in assay [1] (strain acrEF), 32 in assay [1] (strain mdtEF pEmrE) and 8 in assay [1] (strain mdtEF).

For `CN(C)c1ccc(O)c2c1C[C@H]1C[C@H]3[C@H](N(C)C)C(O)=C(C(N)=O)C(=O)[C@@]3(O)C(O)=C1C2=O` [minocycline], the MIC in assay [1] (strain EKO-35) is 0.63 µg/mL; in assay [1] (strain EKO-35 pEmrE), 0.63 µg/mL; in assay [1] (strain acrB pEmrE), 2.5 µg/mL; in assay [1] (strain acrB), 2.5 µg/mL. Moreover, the “Fold Change from EKO-35” value amounted to 1 in assay [1] (strain EKO-35 pEmrE); 4 in assay [1] (strain acrB pEmrE); 4 in assay [1] (strain acrB); 2 in assay [1] (strain acrD pEmrE); 2 in assay [1] (strain acrD); 2 in assay [1] (strain acrEF pEmrE). The “Fold Change from EKO-35” value in assay [1] (strain acrEF), in assay [1] (strain mdtEF pEmrE) and in assay [1] (strain mdtEF) was 2 throughout.

The term MIC denotes the least concentration at which growth counts as inhibited.
